Results from article PMC10705938, “Discovery of Anti-Coronavirus Cinnamoyl Triterpenoids Isolated from Hippophae rhamnoides during a Screening of Halophytes from the North Sea and Channel Coasts in Northern France” (International Journal of Molecular Sciences, 2023).
Values after ≈ are worked out from the molar mass of the structure shown. Like-named read-outs stand apart in the source and are kept apart here.

Assays:
Staphylococcus capitis = tested on: Staphylococcus capitis; design: method as in PMID 11199141; settings: cited from earlier work
Candida albicans = tested on: Candida albicans; design: method as in PMID 11199141; settings: cited from earlier work
HCoV-229E [1] = experiment: HCoV-229E-Luc infection assay (luciferase) in Huh-7 cells; type: cell-based; settings: Human coronavirus 229E, purified compounds
HCoV-229E [2] = experiment: HCoV-229E-Luc infection assay (luciferase) in Huh-7/TMPRSS2 cells; type: cell-based; settings: Human coronavirus 229E, purified compounds
in vitro = settings: human, Huh-7 cells
Procedure: The cytotoxicity of 25 crude methanolic extracts was tested on Huh-7 cells using an [3-(4,5-dimethylthiazol-2-yl)-5-(3-carboxymethoxyphenyl)-2-(4-sulfophenyl)-2H-tetrazolium]- based (MTS) viability assay. Huh-7 cells were treated with two different concentrations of the crude methanolic extracts (25 and 100 μg/mL) for 24 h. Non-treated control cells were incubated with 0.1% dimethyl sulfoxide (DMSO) in the media.
Huh-7 cells and Vero-81 cells were seeded in 96-well plates and incubated with 100 μL of culture medium containing increasing concentrations of our compounds for 24 h. An MTS based viability assay (CellTiter 96 aqueous nonradioactive cell proliferation assay, Promega, Madison WI, USA) was performed, as recommended by the manufacturer. The absorbance of formazan at 490 nm was detected using ELx808 plate reader (BioTek Instruments Inc., Winooski, VT, USA). Each measurement was performed in triplicate.

SARS-CoV-2 = experiment: microbe, parasite or virus in culture; type: cell-based; settings: read-out: inhibition of SARS-CoV-2 (N protein levels)
SARS-CoV-2 Mpro enzyme = tested on: SARS-CoV-2 Mpro enzyme; design: method as in PMID 35066300; settings: cited from earlier work
hepatitis C virus = tested on: hepatitis C virus; design: method as in PMID 30842319; settings: cited from earlier work
[3] = tested on: SARS-CoV-2 spike pseudotyped virus; settings: in vitro; cited from earlier work

## CC1(C)CC[C@]2(C(=O)O)CC[C@]3(C)C(=CC[C@@H]4[C@@]5(C)C[C@@H](O)[C@H](OC(=O)/C=C/c6ccc(O)cc6)C(C)(C)[C@@H]5CC[C@]43C)[C@@H]2C1 (relative stereo) [3-β -O-(trans-p-coumaroyl)maslinic acid]
Staphylococcus capitis
  minimum inhibitory concentration: 12.5 µg/mL (≈ 20.2 µM)
Candida albicans
  minimum inhibitory concentration: 12.5 µg/mL (≈ 20.2 µM)

## CC1(C)CC[C@]2(C(=O)O)CC[C@]3(C)C(=CC[C@@H]4[C@@]5(C)C[C@@H](OC(=O)/C=C/c6ccc(O)cc6)[C@H](O)C(C)(C)[C@@H]5CC[C@]43C)[C@@H]2C1 [F2-1, 2-O-trans-p-coumaroyl-maslinic acid]
HCoV-229E [1]
  IC50: 8.6 µM
HCoV-229E [2]
  IC50: 9.1 µM
In vitro
  CC50 at 24 h: 39.9 µM

## C[C@H]1[C@H](C)CC[C@]2(C(=O)O)CC[C@]3(C)C(=CC[C@@H]4[C@@]5(C)C[C@@H](OC(=O)/C=C/c6ccc(O)cc6)[C@H](O)C(C)(C)[C@@H]5CC[C@]43C)[C@H]12 [F2-2, 3β-hydroxy-2α-trans-p-coumaryloxy-urs-12-en-28-oic acid]
HCoV-229E [1]
  IC50: 12 µM
HCoV-229E [2]
  IC50: 11.4 µM
In vitro
  CC50 at 24 h: 44.4 µM

## C[C@H]1[C@H](C)CC[C@]2(C(=O)O)CC[C@]3(C)C(=CC[C@@H]4[C@@]5(C)C[C@@H](OC(=O)/C=C\c6ccc(O)cc6)[C@H](O)C(C)(C)[C@@H]5CC[C@]43C)[C@H]12 [F2-3, 3β-hydroxy-2α-cis-p-coumaryloxy-urs-12-en-28-oic acid]
HCoV-229E [1]
  IC50: 14.5 µM
HCoV-229E [2]
  IC50: 14.1 µM
In vitro
  CC50 at 24 h: 52.1 µM

## CC1(C)CC[C@]2(C(=O)O)CC[C@]3(C)C(=CC[C@@H]4[C@@]5(C)CC[C@H](OC(=O)/C=C/c6ccc(O)c(O)c6)C(C)(C)[C@@H]5CC[C@]43C)[C@@H]2C1 [F4-2, 3-O-trans-caffeoyl-oleanolic acid]
HCoV-229E [1]
  IC50: 11.6 µM
HCoV-229E [2]
  IC50: 11.5 µM
SARS-CoV-2; Severe acute respiratory syndrome coronavirus 2, 50 µM, Vero-81, 16 h, Western blot
  inhibition at 50 µM: 54%
In vitro
  CC50 at 24 h: 81.4 µM

## CC1(C)CC[C@]2(C(=O)O)CC[C@]3(C)C(=CC[C@@H]4[C@@]5(C)CC[C@H](OC(=O)/C=C/c6ccc(O)cc6)C(C)(C)[C@@H]5CC[C@]43C)[C@@H]2C1 [F7-1, 3-O-trans-p-coumaroyl-oleanolic acid]
HCoV-229E [1]
  IC50: 11.4 µM
HCoV-229E [2]
  IC50: 10.7 µM
SARS-CoV-2; Severe acute respiratory syndrome coronavirus 2, 16 h
  inhibition at 50 µM: 55.5%
In vitro
  CC50 at 24 h: 39.3 µM

## C[C@H]1[C@H](C)CC[C@]2(C(=O)O)CC[C@]3(C)C(=CC[C@@H]4[C@@]5(C)CC[C@H](O)C(C)(C)[C@@H]5CC[C@]43C)[C@H]12 [UA, ursolic acid]
SARS-CoV-2 Mpro enzyme
  inhibition of SARS-CoV-2 Mpro enzyme activity: successfully inhibited its activity

## C=Cc1c(C)c(O)cc2ccc3c(C)c(O)ccc3c12 [dehydrojuncusol]
Hepatitis C virus
  inhibition of hepatitis C virus replication: inhibitor of hepatitis C virus replication

## COc1cc(-c2oc3cc(O)cc(O)c3c(=O)c2O)ccc1O [isorhamnetin]
[3]
  antiviral activity against SARS-CoV-2 spike pseudotyped virus: displayed antiviral activity
